Experimental data reported in patent publication US8410174B2, “Method for treating arthritis” (AnaMar AB, priority 2000, dated 2013).

Biological target: T1, MC4 (Homo sapiens, UniProt P32245)
Assay: Stimulation of cAMP, MC4
Assay type: cell-based
Conditions: not given
Method: (§1) The stimulation of cAMP was carried out essentially as described by Schiöth et al, Br J Pharmacol 1998; 124; 75-82.

T1 sequence (P32245 whole entry): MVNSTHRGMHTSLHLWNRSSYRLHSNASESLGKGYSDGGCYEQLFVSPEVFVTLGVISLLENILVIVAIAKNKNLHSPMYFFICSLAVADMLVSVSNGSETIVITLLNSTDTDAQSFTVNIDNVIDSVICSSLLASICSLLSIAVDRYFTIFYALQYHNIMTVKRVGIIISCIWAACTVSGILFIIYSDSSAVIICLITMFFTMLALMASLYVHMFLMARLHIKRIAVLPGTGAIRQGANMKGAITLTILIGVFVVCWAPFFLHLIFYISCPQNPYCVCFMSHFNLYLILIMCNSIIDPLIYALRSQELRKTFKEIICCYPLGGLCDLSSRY

Row | Influence on cAMP MC4c | SMILES
1 | 31.8 | COc1ccc(C=NNC(=N)NO)cc1Br.Cc1ccc(S(=O)(=O)O)cc1 [1:3, N-(3-Bromo-4-methoxybenzylideneamino)-N′-hydroxyguanidine tosylate]
2 | 17.1 | Cc1ccc(S(=O)(=O)O)cc1.N=C(NO)NN=Cc1cc(Cl)ccc1[N+](=O)[O-] [1:4, N-(5-Chloro-2-nitrobenzylideneamino)-N′-hydroxyguanidine tosylate]

Biological target: T1, MC4
Assay: Affinity for the MC4-receptors, binding assay with I125-NDP-αMSH as ligand
Conditions: read-out: Affinity for MC-receptors Ki MC4
Method: (§2) Test 2. Affinity for the MC3-Receptors, the MC4-Receptors and the MC5-Receptors
(§3) The binding assays were carried out essentially as described by Szardenings et al, J Biol Chem 1997; 272; 27943-27948 and Schiöth et al, FEES Lett 1997; 410; 223-228 using I^125-NDP-αMSH as ligand.

Row | Ki | SMILES
3 | 62 µM | COc1ccc(C=NNC(=N)NO)cc1Br.Cc1ccc(S(=O)(=O)O)cc1 [1:3, N-(3-Bromo-4-methoxybenzylideneamino)-N′-hydroxyguanidine tosylate]
4 | 61 µM | Cc1ccc(S(=O)(=O)O)cc1.N=C(NO)NN=Cc1cc(Cl)ccc1[N+](=O)[O-] [1:4, N-(5-Chloro-2-nitrobenzylideneamino)-N′-hydroxyguanidine tosylate]

Biological target: MC1-receptor (Mus musculus, UniProt Q01727)
Assay: Affinity for the MC1-receptor, binding assay with I125-NDP-αMSH as ligand
Conditions: read-out: Affinity for MC-receptors Ki MC1
Method: Test 1. Affinity for the MC1-receptor
The binding assay was carried out essentially as described by Lunec et al, Melanoma Res 1992; 2; 5-12, using I^125-NDP-αMSH as ligand.

Sequence of MC1-receptor (Q01727 whole entry): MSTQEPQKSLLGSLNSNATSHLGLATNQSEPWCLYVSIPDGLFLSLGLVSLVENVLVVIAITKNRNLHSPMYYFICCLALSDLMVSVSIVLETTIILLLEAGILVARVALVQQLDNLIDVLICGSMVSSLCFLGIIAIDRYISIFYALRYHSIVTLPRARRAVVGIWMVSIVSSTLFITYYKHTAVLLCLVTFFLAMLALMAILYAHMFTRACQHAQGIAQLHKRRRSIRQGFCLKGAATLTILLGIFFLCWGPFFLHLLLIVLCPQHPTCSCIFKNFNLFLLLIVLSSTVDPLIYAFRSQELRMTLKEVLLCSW

Row | Ki | SMILES
5 | 42 µM | COc1ccc(C=NNC(=N)NO)cc1Br.Cc1ccc(S(=O)(=O)O)cc1 [1:3, N-(3-Bromo-4-methoxybenzylideneamino)-N′-hydroxyguanidine tosylate]
6 | 42 µM | Cc1ccc(S(=O)(=O)O)cc1.N=C(NO)NN=Cc1cc(Cl)ccc1[N+](=O)[O-] [1:4, N-(5-Chloro-2-nitrobenzylideneamino)-N′-hydroxyguanidine tosylate]

Biological target: T2, MC3 (Homo sapiens, UniProt P41968)
Assay: Affinity for the MC3-receptors, binding assay with I125-NDP-αMSH as ligand
Conditions: read-out: Affinity for MC-receptors Ki MC3
Method: as §2, §3

T2 sequence (P41968 whole entry): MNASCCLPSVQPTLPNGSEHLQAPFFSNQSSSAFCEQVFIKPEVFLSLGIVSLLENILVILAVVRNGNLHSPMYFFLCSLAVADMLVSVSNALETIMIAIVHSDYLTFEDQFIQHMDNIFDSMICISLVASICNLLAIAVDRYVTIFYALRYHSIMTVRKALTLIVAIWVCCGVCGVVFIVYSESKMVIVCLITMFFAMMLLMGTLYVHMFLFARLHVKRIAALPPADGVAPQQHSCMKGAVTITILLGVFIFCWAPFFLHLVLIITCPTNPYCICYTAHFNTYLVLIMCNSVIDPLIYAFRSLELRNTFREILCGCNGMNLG

Row | Ki | SMILES
7 | 91 µM | COc1ccc(C=NNC(=N)NO)cc1Br.Cc1ccc(S(=O)(=O)O)cc1 [1:3, N-(3-Bromo-4-methoxybenzylideneamino)-N′-hydroxyguanidine tosylate]
8 | 68 µM | Cc1ccc(S(=O)(=O)O)cc1.N=C(NO)NN=Cc1cc(Cl)ccc1[N+](=O)[O-] [1:4, N-(5-Chloro-2-nitrobenzylideneamino)-N′-hydroxyguanidine tosylate]

Biological target: T3, MC5 (Homo sapiens, UniProt P33032)
Assay: Stimulation of cAMP, MC5
Assay type: cell-based
Conditions: not given
Method: as §1

T3 sequence (P33032 whole entry): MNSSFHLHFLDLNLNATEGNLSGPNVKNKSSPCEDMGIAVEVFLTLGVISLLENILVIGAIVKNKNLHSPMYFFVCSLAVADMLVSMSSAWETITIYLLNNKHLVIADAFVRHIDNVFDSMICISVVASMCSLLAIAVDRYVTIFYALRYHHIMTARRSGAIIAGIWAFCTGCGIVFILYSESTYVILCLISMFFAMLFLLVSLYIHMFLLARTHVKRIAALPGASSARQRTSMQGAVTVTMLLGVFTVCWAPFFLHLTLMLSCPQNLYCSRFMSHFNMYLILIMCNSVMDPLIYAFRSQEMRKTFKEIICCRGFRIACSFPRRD

Row | Influence on cAMP MC5c | SMILES
9 | 4.7 | COc1ccc(C=NNC(=N)NO)cc1Br.Cc1ccc(S(=O)(=O)O)cc1 [1:3, N-(3-Bromo-4-methoxybenzylideneamino)-N′-hydroxyguanidine tosylate]
10 | 8.7 | Cc1ccc(S(=O)(=O)O)cc1.N=C(NO)NN=Cc1cc(Cl)ccc1[N+](=O)[O-] [1:4, N-(5-Chloro-2-nitrobenzylideneamino)-N′-hydroxyguanidine tosylate]

Biological target: T2, MC3
Assay: Stimulation of cAMP, MC3
Assay type: cell-based
Conditions: not given
Method: as §1

Row | Influence on cAMP MC3c | SMILES
11 | 16 | COc1ccc(C=NNC(=N)NO)cc1Br.Cc1ccc(S(=O)(=O)O)cc1 [1:3, N-(3-Bromo-4-methoxybenzylideneamino)-N′-hydroxyguanidine tosylate]
12 | 1 | Cc1ccc(S(=O)(=O)O)cc1.N=C(NO)NN=Cc1cc(Cl)ccc1[N+](=O)[O-] [1:4, N-(5-Chloro-2-nitrobenzylideneamino)-N′-hydroxyguanidine tosylate]

System: melanocortin receptors
Assay: Affinity to the melanocortin receptors
Assay type: binding
Conditions: not given

Row | affinity to the melanocortin receptors | SMILES
13 | no affinity | N=C(N)N/N=C/c1c(Cl)cccc1Cl [Guanabenz]

System: not given
Assay: not given
Conditions: not given

Row | SMILES | melting point
14 | CC(=O)O.COc1ccc(C=NNC(=N)N)c(Cl)c1OC | 198 to 200 °C
15 | CC(=O)O.COc1cc([N+](=O)[O-])cc(C=NNC(=N)N)c1OC | 191 to 194 °C
16 | CC(=O)O.N=C(N)NN=Cc1ccc(F)c(F)c1 | 176 to 178 °C
17 | CC(=O)O.N=C(N)NN=Cc1ccc(Br)cc1F | 187 to 188 °C
18 | CC(=O)O.N=C(N)NN=Cc1c(F)cccc1F | 138.5 to 141 °C
19 | COc1cc([N+](=O)[O-])cc(C=NNC(=N)N)c1OC.Cl | 237 to 238 °C
20 | CC(=O)O.COc1ccc(C=NNC(=N)N)c(O)c1 | 161 to 164 °C
21 | COc1ccc(C=NNC(=N)N)cc1Br.Cl | 261 to 262.5 °C
22 | Cl.N=C(N)NN=Cc1cccc(I)c1 | 203 to 204 °C
23 | Cl.N=C(N)NN=Cc1ccccc1S(=O)(=O)O | > 260 °C
24 | CC(=O)O.COc1ccc(C=NNC(=N)N)cc1[N+](=O)[O-] | 144 to 147 °C
25 | COc1cc([N+](=O)[O-])cc(C=NNC(=N)N)c1O.Cl | 243 to 246 °C
26 | CC(=O)O.COc1c(Cl)cc(C=NNC(=N)N)cc1[N+](=O)[O-] | 255 to 258 °C (dec.)
27 | CC(=O)O.COc1c(Cl)cc(C=NNC(=N)N)cc1Cl | 185 to 190 °C
28 | CC(=O)O.COc1c(C)cc(C=NNC(=N)N)cc1Br | 163 to 166 °C
29 | COc1ccc(C=NNC(=N)N)c(OC)c1OC.Cl | 181 to 183 °C
30 | Cl.N=C(N)NN=Cc1cc(Br)cc([N+](=O)[O-])c1O | > 250 °C
31 | COc1c(C=NNC(=N)N)cc(Br)cc1[N+](=O)[O-].Cl | 258 to 259 °C
32 | CC(=O)O.COc1cc(OC)c([N+](=O)[O-])cc1C=NNC(=N)N | 207 to 210 °C
33 | CC(=O)O.COc1cc(C=NNC(=N)N)cc(OC)c1OC | 223 to 225 °C
34 | CC(=O)O.COc1cc(OC)c(C=NNC(=N)N)c(OC)c1 | 66 to 68 °C
35 | CC(=O)O.COc1cc(O)c(C=NNC(=N)N)c(OC)c1 | 115 to 118 °C
36 | CC(=O)O.N=C(N)NN=Cc1ccc(F)c(Br)c1 | 172 to 173.5 °C
37 | CC(=O)O.N=C(N)NN=Cc1cccc(F)c1F | 149 to 151.5 °C
38 | CC(=O)O.COc1cc([N+](=O)[O-])c([N+](=O)[O-])c(C=NNC(=N)N)c1OC | 165 to 171 °C
39 | CC(=O)O.N=C(N)NN=Cc1cc([N+](=O)[O-])cc([N+](=O)[O-])c1.O.O (hydrate or solvate) | 251 to 254 °C (dec.)

Next, values leading:

Row | melting point | SMILES
40 | 192 to 195 °C | CC(=O)O.N=C(N)NN=Cc1cc([N+](=O)[O-])ccc1F
41 | 152 to 153 °C | CC(=O)O.N=C(N)NN=Cc1ccc(Br)c([N+](=O)[O-])c1
42 | 153 to 154.5 °C | Cl.N=C(N)NN=Cc1c(Cl)ccc([N+](=O)[O-])c1[N+](=O)[O-]
43 | 222 to 224 °C (dec.) | CC(=O)O.N=C(N)NN=Cc1cc([N+](=O)[O-])ccc1Cl
44 | 222 to 224 °C (dec.) | CC(=O)O.N=C(N)NN=Cc1ccc(F)c([N+](=O)[O-])c1
45 | 196 to 197.5 °C | COc1cc([N+](=O)[O-])cc(C=NNC(=N)NO)c1OC.Cl
46 | 231 to 233 °C | CC(=O)O.N=C(N)NN=Cc1cc(F)cc(F)c1[N+](=O)[O-]
47 | 88 to 91 °C | CC(=O)O.N=C(N)NN=Cc1cc(Cl)cc(Cl)c1[N+](=O)[O-]
48 | 196 to 199 °C | CC(=O)O.COc1cc(Cl)c([N+](=O)[O-])cc1C=NNC(=N)N
49 | 219.5 to 221 °C | CC(=O)O.N=C(N)NN=Cc1c(Cl)ccc(Cl)c1[N+](=O)[O-]
50 | 229 to 230 °C | Cc1cc(O)c(C=NNC(=N)N)cc1[N+](=O)[O-].Cl
51 | 136.5 to 137 °C | CC(=O)O.N=C(N)NN=Cc1cc(Cl)cc([N+](=O)[O-])c1Br
52 | 240 to 241 °C | CC(=O)O.Cc1ccc(C=NNC(=N)N)c([N+](=O)[O-])c1O
53 | 246.5 to 248 °C | Cc1cc([N+](=O)[O-])c(C=NNC(=N)N)cc1Br.Cl
54 | 175 to 198 °C (dec.) | CC(=O)O.N=C(N)NN=Cc1cc([N+](=O)[O-])c(Br)cc1F
55 | 224 to 226 °C | CC(=O)O.N=C(N)NN=Cc1ccc([N+](=O)[O-])cc1[N+](=O)[O-]
56 | 217 to 218 °C | COc1ccc([N+](=O)[O-])c(C=NNC(=N)N)c1[N+](=O)[O-].Cl
57 | 166.5 to 168 °C | Cl.N=C(N)NN=Cc1c([N+](=O)[O-])ccc(Br)c1[N+](=O)[O-]
58 | 219 to 221 °C | COc1ccc(C=NNC(=N)NO)cc1[N+](=O)[O-] [1:76, N-(4-Methoxy-3-nitrobenzylideneamino)-N′-hydroxyguanidine]
59 | 243.5 to 244 °C | N=C(NO)NN=Cc1ccccc1S(=O)(=O)O [1:134, N-(2-Sulphobenzylideneamino)-N′-hydroxyguanidine]

Biological target: MC1 (Homo sapiens, UniProt Q01726)
Assay: Stimulation of cAMP, MC1
Assay type: cell-based
Conditions: not given
Method: as §1

Sequence of MC1 (Q01726 whole entry): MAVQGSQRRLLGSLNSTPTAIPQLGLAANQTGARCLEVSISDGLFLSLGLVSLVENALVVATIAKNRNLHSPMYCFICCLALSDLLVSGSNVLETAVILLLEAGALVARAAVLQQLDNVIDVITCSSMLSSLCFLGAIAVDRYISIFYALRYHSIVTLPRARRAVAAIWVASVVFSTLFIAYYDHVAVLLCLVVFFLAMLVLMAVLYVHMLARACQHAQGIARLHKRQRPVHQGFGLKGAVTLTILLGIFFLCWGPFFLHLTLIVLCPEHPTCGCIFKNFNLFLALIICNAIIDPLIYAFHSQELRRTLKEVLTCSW

Row | Influence on cAMP MC1c | SMILES
60 | 8.4 | COc1ccc(C=NNC(=N)NO)cc1Br.Cc1ccc(S(=O)(=O)O)cc1 [1:3, N-(3-Bromo-4-methoxybenzylideneamino)-N′-hydroxyguanidine tosylate]
61 | 6.4 | Cc1ccc(S(=O)(=O)O)cc1.N=C(NO)NN=Cc1cc(Cl)ccc1[N+](=O)[O-] [1:4, N-(5-Chloro-2-nitrobenzylideneamino)-N′-hydroxyguanidine tosylate]

Biological target: T3, MC5
Assay: Affinity for the MC5-receptors, binding assay with I125-NDP-αMSH as ligand
Conditions: read-out: Affinity for MC-receptors Ki MC5
Method: as §2, §3

Row | Ki | SMILES
62 | 47 µM | COc1ccc(C=NNC(=N)NO)cc1Br.Cc1ccc(S(=O)(=O)O)cc1 [1:3, N-(3-Bromo-4-methoxybenzylideneamino)-N′-hydroxyguanidine tosylate]
63 | 33 µM | Cc1ccc(S(=O)(=O)O)cc1.N=C(NO)NN=Cc1cc(Cl)ccc1[N+](=O)[O-] [1:4, N-(5-Chloro-2-nitrobenzylideneamino)-N′-hydroxyguanidine tosylate]
